# ChEMBL document CHEMBL6134779, “Design of Proteolytic-Resistant Antifungal Peptides by Utilizing Minimum d-Amino Acid Ratios” (J Med Chem, 2024)
# Calls of active or inactive are those of the source. The calls are words filed in the database; no cut-off is given here.
# Assays:
# [1] = Hemolytic activity in human red blood cells assessed as hemolysis rate at 512 uM incubated for 1 hr relative to control; assay type: toxicity, cell-based, Erythrocyte; settings: read-out: Activity
# Candida albicans [2] = test: Antifungal activity against Candida albicans 56452 assessed as inhibition of fungal growth incubated for 48 hrs; assay type: functional
# Candida albicans [3] = test: Antifungal activity against Candida albicans CGMCC 2.2086 assessed as inhibition of fungal growth incubated for 48 hrs in presence of FeCl3; assay type: functional
# Candida albicans [4] = test: Antifungal activity against Candida albicans CGMCC 2.2086 assessed as inhibition of fungal growth incubated for 48 hrs in presence of MgCl2; assay type: functional
# [5] = Stability of the compound in CaCl2 assessed as change in secondary structure by CD spectra analysis; assay type: physicochemical
# HEK293 = test: Cytotoxicity against HEK293 cells assessed as cell death at 64 uM measured after 8 hrs by calcein-AM and propidium iodide Live/Dead dye staining assay; assay type: toxicity, cell-based; settings: human, hek293, 8 h
# Candida albicans [6] = test: Antifungal activity against Candida albicans CGMCC 2.2086 assessed as inhibition of fungal growth incubated for 48 hrs in presence of NH4Cl; assay type: functional
# Candida albicans [7] = test: Induction of ROS generation in Candida albicans CGMCC 2.2086 measured after 60 mins by […] dye based fluorescence assay; assay type: functional, organism-based; settings: dose 0.5-128 µM
# Candida albicans [8] = test: Antifungal activity against Candida albicans 14936 assessed as inhibition of fungal growth incubated for 48 hrs; assay type: functional
# Candida albicans [9] = test: Antifungal activity against Candida albicans CGMCC 2.2086 assessed as inhibition of fungal growth incubated for 48 hrs in presence of KCl; assay type: functional
# Candida albicans [10] = test: Antifungal activity against Fluconazole-resistant Candida albicans 56214 assessed as inhibition of fungal growth incubated for 48 hrs; assay type: functional
# [11] = Stability of the compound in ZnCl2 assessed as change in secondary structure by CD spectra analysis; assay type: physicochemical
# Candida albicans [12] = test: Induction of Candida albicans CGMCC 2.2086 cell wall permeabilization by NPN probe based assay; assay type: functional, organism-based; settings: dose 1-128 µM
# [13] = Stability of the compound in KCl assessed as change in secondary structure by CD spectra analysis; assay type: physicochemical
# [14] = Hemolytic activity in human red blood cells assessed as hemolysis incubated for 1 hr; assay type: toxicity, cell-based, Erythrocyte
# Candida albicans [15] = test: Induction of morphological changes in Candida albicans CGMCC 2.2086 at 1X MIC measured after 60 mins by TEM analysis; assay type: functional, organism-based
# Candida albicans [16] = test: Antifungal activity against Candida albicans CGMCC 2.2086 assessed as inhibition of fungal growth incubated for 48 hrs in presence of ZnCl2; assay type: functional
# Candida parapsilosis = test: Antifungal activity against Candida parapsilosis CGMCC 2.3989 assessed as inhibition of fungal growth incubated for 48 hrs; assay type: functional; settings: Lodderomyces parapsilosis
# Candida albicans [17] = test: Induction of Candida albicans CGMCC 2.2086 cell wall permeabilization at 128 uM by NPN probe based assay relative to control; assay type: functional
# [18] = Stability of the compound in NH4Cl assessed as change in secondary structure by CD spectra analysis; assay type: physicochemical
# [19] = Stability of the compound in FeCl3 assessed as change in secondary structure by CD spectra analysis; assay type: physicochemical
# Candida albicans [20] = test: Antifungal activity against Candida albicans CGMCC 2.2086 assessed as inhibition of fungal growth incubated for 48 hrs in presence of NaCl; assay type: functional
# Candida albicans [21] = test: Antifungal activity against Candida albicans CGMCC 2.2086 assessed as inhibition of fungal growth incubated for 48 hrs in presence of CaCl2; assay type: functional
# Candida albicans [22] = test: Antifungal activity against Candida albicans CGMCC 2.2086 assessed as inhibition of fungal growth incubated for 2 hrs in presence of protease K; assay type: functional, organism-based
# Candida tropicalis = test: Antifungal activity against Candida tropicalis CGMCC 2.1975 assessed as inhibition of fungal growth incubated for 48 hrs; assay type: functional
# Candida albicans [23] = test: Antifungal activity against Candida albicans SP3931 assessed as inhibition of fungal growth incubated for 48 hrs; assay type: functional
# Candida albicans [24] = test: Antifungal activity against Candida albicans SP3902 assessed as inhibition of fungal growth incubated for 48 hrs; assay type: functional
# [25] = Stability of the compound in MgCl2 assessed as change in secondary structure by CD spectra analysis; assay type: physicochemical
# Candida albicans [26] = test: Antifungal activity against Candida albicans CGMCC 2.2086 assessed as inhibition of fungal growth incubated for 2 hrs in presence of trypsin; assay type: functional, organism-based
# Candida albicans [27] = test: Antifungal activity against Candida albicans CGMCC 2.2086 assessed as inhibition of fungal growth incubated for 48 hrs; assay type: functional
# Candida albicans [28] = test: Antifungal activity against Candida albicans SP3876 assessed as inhibition of fungal growth incubated for 48 hrs; assay type: functional
# Candida albicans [29] = test: Antifungal activity against Fluconazole-resistant Candida albicans 58288 assessed as inhibition of fungal growth incubated for 48 hrs; assay type: functional
# [30] = Stability of the compound in NaCl assessed as change in secondary structure by CD spectra analysis; assay type: physicochemical
# Candida albicans [31] = test: Antifungal activity against Candida albicans CGMCC 2.2086 assessed as inhibition of fungal growth incubated for 2 to 4 hrs in presence of 100% serum; assay type: functional, organism-based; settings: time 2-4 hrs
# Candida albicans [32] = test: Induction of morphological changes in Candida albicans CGMCC 2.2086 assessed as appearance of cell pits at 1X MIC measured after 60 mins by SEM analysis; assay type: functional, organism-based
# Candida albicans [33] = test: Antifungal activity against Candida albicans 17546 assessed as inhibition of fungal growth incubated for 48 hrs; assay type: functional
# Candida albicans [34] = test: Antifungal activity against Candida albicans CGMCC 2.2086 assessed as inhibition of fungal growth incubated for 2 hrs in presence of chymotrypsin; assay type: functional, organism-based
# Candida albicans [35] = test: Antibiofilm activity against Candida albicans CGMCC 2.2086 assessed as inhibition of biofilm formation at antifungal MIC measured after 48 hrs by crystal violet staining based assay; assay type: functional
# Cell membrane [36] = test: Disruption of Candida albicans CGMCC 2.2086 cell membrane at 1X MIC measured after 1 hr by SYTO9/propidium iodide staining based fluorescence microscopic analysis; assay type: subcellular
# Candida albicans [37] = test: Antifungal activity against Candida albicans SP3903 assessed as inhibition of fungal growth incubated for 48 hrs; assay type: functional
# Cell membrane [38] = test: Induction of cytoplasmic membrane depolarization in Candida albicans CGMCC 2.2086 at 0.5 to 2X MIC measured up to 3600 secs by DISC3-5 dye based fluorescence assay; assay type: subcellular; settings: time <= 3600.0 sec
# Candida albicans [39] = test: Resistance development in Candida albicans CGMCC 2.2086 assessed as fold increase in MIC after 20 passages by broth microdilution method relative to control; assay type: functional
# Candida albicans [40] = test: Resistance development in Candida albicans CGMCC 2.2086 assessed as fold increase in MIC after 30 passages by broth microdilution method relative to control; assay type: functional
smiles,measurement,setting,value
CC(C)[C@H](N)C(=O)N[C@H](C(=O)N[C@H](CCCNC(=N)N)C(=O)N[C@@H](CCCNC(=N)N)C(=O)N[C@@H](Cc1c[nH]cn1)C(=O)N[C@H](C(=O)N[C@H](C(=O)N[C@H](C(=O)N[C@H](C(=O)N[C@H](CCCNC(=N)N)C(=O)N[C@@H](CCCNC(=N)N)C(=O)N[C@@H](Cc1c[nH]cn1)C(=O)N[C@H](C(=O)N[C@H](C(=O)N[C@H](C(=O)N[C@H](C(=O)N[C@H](CCCNC(=N)N)C(=O)N[C@@H](CCCNC(=N)N)C(=O)N[C@@H](Cc1c[nH]cn1)C(=O)N[C@H](C(=O)N[C@H](C(N)=O)C(C)C)C(C)C)C(C)C)C(C)C)C(C)C)C(C)C)C(C)C)C(C)C)C(C)C)C(C)C)C(C)C,"hemolysis at 1 h, 512 µM",[1],8.58%
same,MIC95,Candida albicans [2],4 µM
same,MIC95,Candida albicans [3],32 µM
same,MIC95,Candida albicans [4],8 µM
same,Stability,[5],Stable
same,Activity,HEK293,Toxic
same,MIC95,Candida albicans [6],4 µM
same,Activity,Candida albicans [7],Dose-dependent-effect
same,MIC95,Candida albicans [8],8 µM
same,MIC95,Candida albicans [9],32 µM
same,MIC95,Candida albicans [10],8 µM
same,Stability,[11],Stable
same,Activity,Candida albicans [12],Dose-dependent-effect
same,Stability,[13],Stable
same,HC50 at 1 h,[14],> 512 µM
same,Activity,Candida albicans [15],inactive
same,MIC95,Candida albicans [16],8 µM
same,MIC95,Candida parapsilosis,4 µM
same,Activity,Candida albicans [17],<=100%
same,Stability,[18],Stable
same,Stability,[19],Stable
same,MIC95,Candida albicans [20],64 µM
same,MIC95,Candida albicans [21],32 µM
same,Activity,Candida albicans [22],Active
same,MIC95,Candida tropicalis,4 µM
same,MIC95,Candida albicans [23],8 µM
same,MIC95,Candida albicans [24],8 µM
same,Stability,[25],Stable
same,Activity,Candida albicans [26],Active
same,MIC95,Candida albicans [27],8 µM
same,MIC95,Candida albicans [28],8 µM
same,MIC95,Candida albicans [29],8 µM
same,Stability,[30],Unstable
same,growth inhibition (GI),Candida albicans [31],Active; No Alterations In The Antimicrobial Activity Was Observed In Presence Of Serum
same,Activity,Candida albicans [32],Active; Only Limited Number Of Pits Appeared
same,MIC95,Candida albicans [33],4 µM
same,Activity,Candida albicans [34],Active
same,inhibition (INH),Candida albicans [35],90%
same,Activity,Cell membrane [36],Active
same,MIC95,Candida albicans [37],4 µM
same,Activity,Cell membrane [38],Active
OC(Cn1cncn1)(Cn1cncn1)c1ccc(F)cc1F [FLUCONAZOLE],MIC95,Candida albicans [2],2 µM
same,MIC95,Candida albicans [8],2 µM
same,MIC95,Candida albicans [10],> 64 µM
same,MIC95,Candida parapsilosis,4 µM
same,fold change (FC),Candida albicans [39],64
same,fold change (FC),Candida albicans [40],128
same,MIC95,Candida tropicalis,1 µM
same,MIC95,Candida albicans [23],2 µM
same,MIC95,Candida albicans [24],4 µM
same,MIC95,Candida albicans [27],4 µM
same,MIC95,Candida albicans [28],8 µM
same,MIC95,Candida albicans [29],> 64 µM
same,MIC95,Candida albicans [33],1 µM
same,MIC95,Candida albicans [37],2 µM
